Reference: ChEMBL document CHEMBL4765439, “Identification of the subtype-selective Sirt5 inhibitor balsalazide through systematic SAR analysis and rationalization via theoretical investigations” (Eur J Med Chem, 2020)
Active and inactive are the calls of the source. The calls are words filed in the database; no cut-off is given here.

Columns and labels:
[1] = target: T1, NAD-dependent protein deacylase sirtuin-5, mitochondrial (Homo sapiens, UniProt Q9NXA8); experiment: Inhibition of recombinant human SIRT5 at 50 uM using flour de lys succinyl as substrate in presence of NAD+ by fluorometric assay relative to control
Target sequence in this assay (Q9NXA8 37-310 limits assumed): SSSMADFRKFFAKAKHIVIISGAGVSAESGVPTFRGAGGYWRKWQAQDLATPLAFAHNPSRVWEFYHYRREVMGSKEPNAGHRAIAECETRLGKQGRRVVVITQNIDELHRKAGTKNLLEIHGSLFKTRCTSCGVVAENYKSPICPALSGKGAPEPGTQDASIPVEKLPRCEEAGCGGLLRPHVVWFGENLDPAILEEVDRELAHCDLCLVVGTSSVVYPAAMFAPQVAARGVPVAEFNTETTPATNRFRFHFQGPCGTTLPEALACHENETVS

[2] = target: T1, NAD-dependent protein deacylase sirtuin-5, mitochondrial; experiment: Competitive inhibition of recombinant human SIRT5 assessed as substrate conversion at 50 uM using increasing concentration of ZKsA as substrate in presence of NAD+ by trypsin-coupled assay
Target sequence in this assay (Q9NXA8 37-310 limits assumed): as above

[3] = target: T2, NAD-dependent protein deacetylase sirtuin-1 (Homo sapiens) (UniProt Q96EB6); experiment: (§1) Inhibition of recombinant human SIRT1 (133 to 747 residues) expressed in Escherichia coli BL21(DE3) at 50 uM using ZMAL as substrate incubated for 4 hrs in presence of NAD+ followed by incubation with trypsin for 20 mins by trypsin-coupled assay based homogenous fluorescence analysis relative to control; conditions: time 260.0 min
T2 sequence (whole entry): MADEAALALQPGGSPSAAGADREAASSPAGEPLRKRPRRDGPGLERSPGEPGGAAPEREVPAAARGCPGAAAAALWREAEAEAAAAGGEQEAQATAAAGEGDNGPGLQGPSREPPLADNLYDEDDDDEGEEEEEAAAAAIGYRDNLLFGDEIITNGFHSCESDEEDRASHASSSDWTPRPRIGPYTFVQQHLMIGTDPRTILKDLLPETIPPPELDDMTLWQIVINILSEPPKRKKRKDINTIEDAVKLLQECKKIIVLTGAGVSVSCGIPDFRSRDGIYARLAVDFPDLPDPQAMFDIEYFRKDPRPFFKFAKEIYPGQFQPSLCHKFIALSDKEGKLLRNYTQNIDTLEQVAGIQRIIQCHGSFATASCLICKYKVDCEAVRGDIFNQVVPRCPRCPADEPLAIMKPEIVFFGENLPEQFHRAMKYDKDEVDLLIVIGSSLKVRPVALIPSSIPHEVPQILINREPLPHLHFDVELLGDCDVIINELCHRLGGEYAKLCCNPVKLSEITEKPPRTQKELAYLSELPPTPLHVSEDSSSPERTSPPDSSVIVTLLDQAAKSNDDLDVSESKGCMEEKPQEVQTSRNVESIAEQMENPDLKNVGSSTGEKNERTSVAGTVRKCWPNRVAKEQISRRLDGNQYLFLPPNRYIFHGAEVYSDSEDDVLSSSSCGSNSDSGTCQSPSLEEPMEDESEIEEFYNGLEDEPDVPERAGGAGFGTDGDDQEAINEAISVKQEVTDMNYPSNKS

[4] = target: T3, NAD-dependent protein deacetylase sirtuin-2 (Homo sapiens) (UniProt Q8IXJ6); experiment: as §1, with “SIRT2 (25” for “SIRT1 (133”, “389” for “747”; conditions: time 260.0 min
T3 sequence (whole entry): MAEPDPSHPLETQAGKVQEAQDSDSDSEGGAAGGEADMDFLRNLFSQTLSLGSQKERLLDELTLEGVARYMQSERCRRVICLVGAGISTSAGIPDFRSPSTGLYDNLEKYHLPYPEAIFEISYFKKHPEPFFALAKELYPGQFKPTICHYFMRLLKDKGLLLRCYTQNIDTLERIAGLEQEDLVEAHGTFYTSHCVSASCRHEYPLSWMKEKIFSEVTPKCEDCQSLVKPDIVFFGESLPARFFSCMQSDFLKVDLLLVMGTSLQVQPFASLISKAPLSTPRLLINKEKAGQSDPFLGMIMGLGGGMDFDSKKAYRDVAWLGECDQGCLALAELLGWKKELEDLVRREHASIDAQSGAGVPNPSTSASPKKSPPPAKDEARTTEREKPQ

[5] = target: T1, NAD-dependent protein deacylase sirtuin-5, mitochondrial; experiment: Competitive inhibition of recombinant human SIRT5 assessed as substrate conversion at 50 uM using ZKsA as substrate in presence of increasing concentration of NAD+ by trypsin-coupled assay
Target sequence in this assay (Q9NXA8 37-310 limits assumed): as the sequence (Q9NXA8 37-310 limits assumed) above

[6] = target: T1, NAD-dependent protein deacylase sirtuin-5, mitochondrial; experiment: Inhibition of SIRT5 (unknown origin)
Target sequence in this assay (Q9NXA8 whole entry): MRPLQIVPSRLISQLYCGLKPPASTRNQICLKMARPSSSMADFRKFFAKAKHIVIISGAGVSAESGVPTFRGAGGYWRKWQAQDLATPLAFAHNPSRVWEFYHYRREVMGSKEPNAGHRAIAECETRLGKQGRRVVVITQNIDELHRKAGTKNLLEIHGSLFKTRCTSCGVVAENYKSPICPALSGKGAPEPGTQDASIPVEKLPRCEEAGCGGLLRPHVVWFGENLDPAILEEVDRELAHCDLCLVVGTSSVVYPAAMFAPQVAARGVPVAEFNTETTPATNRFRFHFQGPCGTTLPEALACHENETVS

[7] = target: T1, NAD-dependent protein deacylase sirtuin-5, mitochondrial; experiment: Inhibition of recombinant human SIRT5 using flour de lys succinyl as substrate in presence of NAD+ by fluorometric assay
Target sequence in this assay (Q9NXA8 whole entry): as above

[8] = target: T3, NAD-dependent protein deacetylase sirtuin-2 (Homo sapiens); experiment: as §1, with “SIRT2 (25” for “SIRT1 (133”, “389” for “747”, “100” for “50”; conditions: time 260.0 min
[9] = target: T4, NAD-dependent protein deacetylase sirtuin-3, mitochondrial (Homo sapiens) (UniProt Q9NTG7); experiment: as §1, with “SIRT3 (101” for “SIRT1 (133”, “399” for “747”, “100” for “50”; conditions: time 260.0 min
T4 sequence (whole entry): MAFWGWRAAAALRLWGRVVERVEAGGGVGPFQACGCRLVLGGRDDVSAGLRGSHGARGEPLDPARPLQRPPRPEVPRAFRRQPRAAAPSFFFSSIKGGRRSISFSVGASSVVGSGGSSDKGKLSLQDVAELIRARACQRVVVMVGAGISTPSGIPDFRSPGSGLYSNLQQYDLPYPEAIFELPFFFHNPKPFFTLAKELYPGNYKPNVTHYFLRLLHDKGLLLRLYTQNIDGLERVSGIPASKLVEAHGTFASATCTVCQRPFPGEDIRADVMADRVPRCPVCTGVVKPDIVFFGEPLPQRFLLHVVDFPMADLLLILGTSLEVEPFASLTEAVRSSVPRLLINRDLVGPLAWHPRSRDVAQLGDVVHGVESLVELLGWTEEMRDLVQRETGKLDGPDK

[10] = target: T2, NAD-dependent protein deacetylase sirtuin-1 (Homo sapiens); experiment: as §1, with “100” for “50”; conditions: time 260.0 min

Q: O=C(O)CCNCc1ccc(/N=N/c2ccc(O)c(C(=O)O)c2)cc1 was tested. Which inhibition [1] did it give?
A: 27%

Q: And the inhibition [2]?
A: inactive

Q: And the inhibition [3]?
A: < 10%

Q: And the inhibition [4]?
A: 19%

Q: What about the inhibition [5] of the same compound?
A: inactive

Q: O=C(O)CCOCc1ccc(/N=N/c2ccc(O)c(C(=O)O)c2)cc1 was tested. Which inhibition [1] did it give?
A: 33%

Q: With O=C(O)CCCC(O)c1ccc(/N=N/c2ccc(O)c(C(=O)O)c2)cc1 (configuration not stated) as the compound, how does the inhibition [1] read?
A: 39%

Q: With O=C(O)CCCC(=O)c1ccc(/N=N/c2ccc(O)c(C(=O)O)c2)cc1 as the compound, how does the inhibition [1] read?
A: 54%

Q: Which results are given for NC(=O)c1cccnc1?
A: inhibition [3]: 21%; inhibition [4]: 65%

Q: With CC1=C2C(=COC(C)C2C)C(O)=C(C(=O)O)C1=O (configuration not stated) as the compound, how does the IC50 [6] read?
A: 90 µM

Q: For O=C(O)CCNC(=O)c1ccc(/N=N/c2ccc(O)cc2)cc1, which inhibition [1] is on record?
A: 73%

Q: What about the inhibition [2] of the same compound?
A: inactive

Q: What about the inhibition [3] of the same compound?
A: < 10%

Q: What about the inhibition [4] of the same compound?
A: 26%

Q: What about the inhibition [5] of the same compound?
A: inactive

Q: CC(C)(Sc1cc(C(C)(C)C)c(O)c(C(C)(C)C)c1)Sc1cc(C(C)(C)C)c(O)c(C(C)(C)C)c1 [PROBUCOL] was tested. Which IC50 [6] did it give?
A: 1.6 µM

Q: What does the source list for O=C(O)CCNC(=O)c1ccc(/N=N/c2ccc(O)c(C(=O)O)c2)cc1 [BALSALAZIDE]?
A: inhibition [1]: 83%; IC50 [6]: 3.9 µM; inhibition [2]: inactive; inhibition [3]: < 10%; inhibition [4]: 11%; inhibition [5]: inactive; IC50 [7]: 5.3 µM

Q: O=C(O)CCNC(=O)c1ccc(/N=N/c2ccccc2)cc1 was tested. Which inhibition [1] did it give?
A: 62%

Q: And the inhibition [3]?
A: < 10%

Q: What about the inhibition [4] of the same compound?
A: 16%

Q: And the inhibition [8]?
A: < 25%

Q: What about the inhibition [9] of the same compound?
A: inactive

Q: And the inhibition [10]?
A: inactive

Q: How did the inhibition [1] turn out when O=C(O)c1ccc(/N=N/c2ccc(O)c(C(=O)O)c2)cc1 was run?
A: 27%

Q: NC(=O)c1ccc(/N=N/c2ccc(O)c(C(=O)O)c2)cc1 was tested. Which inhibition [1] did it give?
A: 32%

Q: Which inhibition [1] does the source give for O=C(O)CNC(=S)Nc1ccc(/N=N/c2ccc(O)c(C(=O)O)c2)cc1 here?
A: 24%

Q: Which inhibition [1] does the source give for Cc1ccc(C(=O)Nc2ccc(S(=O)(=O)O)c3cc(S(=O)(=O)O)cc(S(=O)(=O)O)c23)cc1NC(=O)c1cccc(NC(=O)Nc2cccc(C(=O)Nc3cc(C(=O)Nc4ccc(S(=O)(=O)O)c5cc(S(=O)(=O)O)cc(S(=O)(=O)O)c45)ccc3C)c2)c1 here?
A: 53%

Q: And the inhibition [3]?
A: 95%

Q: With O=C(O)CCC(=O)Nc1ccc(/N=N/c2ccc(O)c(C(=O)O)c2)cc1 as the compound, how does the inhibition [1] read?
A: 26%

Q: Which IC50 [6] does the source give for C[C@]12CC[C@@H]3c4ccc(O)cc4C[C@@H](CCCCCCCCC[S+]([O-])CCCC(F)(F)C(F)(F)F)[C@H]3[C@@H]1CC[C@@H]2O (some centres not stated) [FULVESTRANT] here?
A: 2.6 µM

Q: C=C1c2cccc(O)c2C(=O)C2=C(O)[C@]3(O)C(=O)C(C(N)=O)=C(O)[C@@H](N(C)C)[C@@H]3[C@@H](O)[C@H]12 [METHACYCLINE] was tested. Which IC50 [6] did it give?
A: 3.6 µM

Q: For Cc1cc(C(C#N)c2ccc(Cl)cc2)c(Cl)cc1NC(=O)c1cc(I)cc(I)c1O (configuration not stated) [CLOSANTEL], which IC50 [6] is on record?
A: 2.7 µM

Q: With O=C(O)CCNC(=O)c1ccc(/N=N/c2cccc(C(=O)O)c2)cc1 as the compound, how does the inhibition [1] read?
A: 63%

Q: And the inhibition [3]?
A: < 10%

Q: And the inhibition [4]?
A: 21%

Q: And the inhibition [8]?
A: < 25%

Q: And the inhibition [9]?
A: inactive

Q: And the inhibition [10]?
A: inactive

Q: How did the inhibition [1] turn out when O=C(O)CCCCc1ccc(/N=N/c2ccc(O)c(C(=O)O)c2)cc1 was run?
A: 32%

Q: How did the inhibition [1] turn out when CCCNC(=O)c1ccc(/N=N/c2ccc(O)c(C(=O)O)c2)cc1 was run?
A: 31%
